Assay results: US10555987B2, “GHRH agonists for the treatment of ischemic disorders” (UNIVERSITY OF MIAMI, priority 2012, dated 2020)
Non-standard residues stand in square brackets, D forms with d. Residues, ends and D or L forms follow the SMILES beside them. *: point of attachment. Desaminotyrosyl = O=C(CCc1ccc(O)cc1)*; NMeY = CN[C@@H](Cc1ccc(O)cc1)C(=O)O; Agmatine = N=C(N)NCCCCN*; Nle = CCCC[C@H](N)C(=O)O; Orn = NCCC[C@H](N)C(=O)O; Abu = CC[C@H](N)C(=O)O; Ava = NCCCCC(=O)O

Columns and labels:
GH release [1] = assay: In vivo endocrine activity, GH release after subcutaneous administration (Table 9); conditions: rat, subcutaneous (s.c.) injection
Method: Subcutaneous Administration. Adult male rats were used and anesthetized with pentobarbital (6 mg/100 g, b.w.), by i.p. injection. […] Blood samples were taken from the jugular vein 5, 15 and/or 30 minutes after the injection. The blood samples were centrifuged, plasma was removed and the GH level was measured byELISA. The results are summarized in terms of potency in Table 9.

GH release [2] = assay: GH releasing potency in vivo, subcutaneous administration (Example 14, Table 12); design: species or system rat; conditions: s.c.; for Serum GH level at selected time after injection (ng/ml), 0 min / Serum GH level at selected time after injection (ng/ml), 15 min / Serum GH level at selected time after injection (ng/ml), 30 min: male rats, dose 3 μg/kg, mean ± SEM
Method: Male Sprague-Dawley rats, weighing 200-250 g, were purchased from Charles River Laboratory (Wilmington, Mass.) and used for experiments. All animal procedures were approved by the Veterans Affairs Animal Care and Use Committee and were conducted in accordance with additional institutional guidelines as well. Briefly, groups of 5-6 animals were used in each experiment. The rats were anesthetized with 50 mg/kg of sodium pentobarbital (Nembutal, Lundbeck Inc., Deerfield, Ill.). Twenty min after inducing anesthesia, GHRH(1-29)NH2, JI-38, or new analogs were injected into the animals intravenously (i.v.) or subcutaneously (s.c.). The peptides were dissolved in 0.01 M acetic acid to get 1 μg/μl stock solution, and then diluted with 5% mannitol. Control rats received 5% mannitol only. Blood samples were collected from the jugular vein at selected times and were used for serum preparation. Concentrations of GH in rat sera were determined by ELISA. The relative potencies of tested peptides were calculated using GHRH(1-29)NH2 and JI-38 for comparison, whose potency was defined as 1. The equivalent dosage of GHRH(1-29)NH2 to reach the same level of serum growth hormone release after injection of the specific tested peptide was determined from a GHRH(1-29)NH2 standard curve using Origin 6.0 software. […] Serum GH was determined using the rat Growth Hormone ELISA kit (ALPCO Diagnostics, Mill Valley, Calif.) according to the manufacturer's instruction. Absorbance at 405 nm was measured by a Victor 3 Multi-label Counter (Perkin-Elmer, Waltham, Md.).

GHRH receptor [3] = biological target: T1, GHRH receptor (Homo sapiens, UniProt Q02643); assay: Receptor binding in vitro, 125I-labeled [His1,Nle27]-hGHRH(1-32)NH2, membrane receptors of human anterior pituitary cells (Table 14); conditions: for Relative affinity (Binding potency) compared to JI-38: JI-38 = 1; for Relative affinity (Binding potency) compared to hGHRH(1-29): hGHRH(1-29)NH2 = 1
T1 sequence (Q02643 23-423): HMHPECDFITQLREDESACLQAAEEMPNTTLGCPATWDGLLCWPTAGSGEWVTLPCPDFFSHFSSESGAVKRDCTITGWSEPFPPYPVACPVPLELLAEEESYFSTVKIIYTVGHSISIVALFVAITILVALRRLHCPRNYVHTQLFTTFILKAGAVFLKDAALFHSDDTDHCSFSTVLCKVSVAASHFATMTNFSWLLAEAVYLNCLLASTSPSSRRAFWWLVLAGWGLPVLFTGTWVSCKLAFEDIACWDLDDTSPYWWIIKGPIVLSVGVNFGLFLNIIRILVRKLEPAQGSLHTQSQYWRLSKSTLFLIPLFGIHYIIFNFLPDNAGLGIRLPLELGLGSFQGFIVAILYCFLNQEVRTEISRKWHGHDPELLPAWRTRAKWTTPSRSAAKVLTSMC
Description: Normal human pituitary was purchased from the National Hormone and Peptide Program (UCLA Medical Center, Torrance, Calif.).

GHRH receptor [4] = biological target: T1, GHRH receptor; assay: GHRH receptor binding, competition with 125I-labeled JV-1-42, human pituitary membrane homogenates (Table 7); design: Normal human pituitaries were purchased from the National Hormone and Peptide Program; tissue National Hormone and Peptide Program (A.F. Parlow, Harbor-UCLA Medical Center, Torrance, Calif.); host or cells: normal human pituitary, membrane fraction; conditions: for Relative affinity (Binding potency) vs JI-38: JI-38 = 1, Table 7
Description: Normal human pituitaries were purchased from the National Hormone and Peptide Program (A.F. Parlow, Los Angeles, County Harbor-UCLA Medical Center, Torrance, Calif.).

| SMILES | GH releasing potency relative to JI-38 (=1) (GH release [1]; 15 min after) | GH releasing potency relative to JI-38 (=1) (GH release [1]; 30 min after) | Serum GH level at selected time after injection (ng/ml), 0 min (GH release [2]) [ng/mL] | Serum GH level at selected time after injection (ng/ml), 15 min (GH release [2]) [ng/mL] | Serum GH level at selected time after injection (ng/ml), 30 min (GH release [2]) [ng/mL] | GH-releasing potency after s.c. administration (in words) (GH release [2]) | Relative potency compared to GHRH(1-29), 15 min (GH release [2]) | Relative potency compared to JI-38, 15 min (GH release [2]) | Relative potency compared to GHRH(1-29), 30 min (GH release [2]) | Relative potency compared to JI-38, 30 min (GH release [2]) | Relative affinity (Binding potency) compared to JI-38 (GHRH receptor [3]) | GHRH receptor binding affinity (in words) (GHRH receptor [3]; compared to JI-38) | Relative affinity (Binding potency) compared to hGHRH(1-29) (GHRH receptor [3]) | IC50 (GHRH receptor [4]; 125I-JV-1-42, human pituitary membranes, Table 7) [nM] | Relative affinity (Binding potency) vs JI-38 (GHRH receptor [4]) |
| --- | --- | --- | --- | --- | --- | --- | --- | --- | --- | --- | --- | --- | --- | --- | --- |
| CCCC[C@H](NC(=O)[C@@H](NC(=O)[C@H](CC(=O)O)NC(=O)[C@H](CCC(N)=O)NC(=O)[C@H](CC(C)C)NC(=O)[C@H](CC(C)C)NC(=O)[C@H](CCCN)NC(=O)[C@H](CCCNC(=N)N)NC(=O)[C@H](C)NC(=O)[C@H](CO)NC(=O)[C@H](CC(C)C)NC(=O)[C@H](CCC(N)=O)NC(=O)[C@H](CC)NC(=O)[C@H](CC(C)C)NC(=O)[C@@H](NC(=O)[C@H](CCCN)NC(=O)[C@H](CCCNC(=N)N)NC(=O)[C@H](Cc1ccc(O)cc1)NC(=O)[C@H](CO)NC(=O)[C@H](CCC(N)=O)NC(=O)[C@@H](NC(=O)[C@H](Cc1ccccc1)NC(=O)[C@@H](NC(=O)[C@H](C)NC(=O)[C@H](CC(=O)O)NC(=O)[C@@H](C)NC(=O)[C@H](Cc1ccc(O)cc1)N(C)C(C)=O)[C@@H](C)CC)[C@@H](C)O)C(C)C)[C@@H](C)CC)C(=O)N[C@@H](CC(=O)O)C(=O)NCCCCNC(=N)N [Peptide P-20351, [Ac—N—Me-Tyr^1, D-Ala^2, Gln^8, Orn^12, Abu^15, Orn^21, Nle^27, Asp^28, Agm^29] hGHRH(1-29)NH2] (Ac-[NMeY][dA]DAIFTQSYR[Orn]VL[Abu]QLSAR[Orn]LLQDI[Nle]D-Agmatine) | 0.38 | 0.44 | 30.6 ± 7.2 | 90.8 ± 20.3 | 65.4 ± 10.1 | weaker GH-releasing potency | 18.8 | 0.30 | 33.6 | 0.30 | 0.71 | weaker GH-releasing potency and GH receptor binding affinity | 1.98 | 3.44 | 1.26 |
| CCCC[C@H](NC(=O)[C@@H](NC(=O)[C@H](CC(=O)O)NC(=O)[C@H](CCC(N)=O)NC(=O)[C@H](CC(C)C)NC(=O)[C@H](CC(C)C)NC(=O)[C@H](CCCN)NC(=O)[C@H](CCCNC(=N)N)NC(=O)[C@H](C)NC(=O)[C@H](CO)NC(=O)[C@H](CC(C)C)NC(=O)[C@H](CCC(N)=O)NC(=O)[C@H](CC)NC(=O)[C@H](CC(C)C)NC(=O)[C@@H](NC(=O)[C@H](CCCN)NC(=O)[C@H](CCCNC(=N)N)NC(=O)[C@H](Cc1ccc(O)cc1)NC(=O)[C@H](CO)NC(=O)[C@H](CCC(N)=O)NC(=O)[C@@H](NC(=O)[C@H](Cc1ccccc1)NC(=O)[C@@H](NC(=O)[C@H](C)NC(=O)[C@H](CC(=O)O)NC(=O)[C@H](C)NC(=O)CCc1ccc(O)cc1)[C@@H](C)CC)[C@@H](C)O)C(C)C)[C@@H](C)CC)C(=O)N[C@@H](CC(=O)O)C(=O)N[C@@H](CCCNC(=N)N)C(=O)NCCCCC(N)=O [Peptide P-22327, [Dat^1, Gln^8, Orn^12, Abu^15, Orn^21, Nle^27, Asp^28, Apa^30]hGHRH(1-30)NH2] (Desaminotyrosyl-ADAIFTQSYR[Orn]VL[Abu]QLSAR[Orn]LLQDI[Nle]DR[Ava]-NH2) | 1.15 | 1.30 | 31.5 ± 3.4 | 258.7 ± 31.1 | 138 ± 27.9 | – | 73.5 | 1.16 | 126.5 | 1.16 | 1.34 | – | 3.75 | – | 2.18 |
| CCCC[C@H](NC(=O)[C@@H](NC(=O)[C@H](CC(=O)O)NC(=O)[C@H](CCC(N)=O)NC(=O)[C@H](CC(C)C)NC(=O)[C@H](CC(C)C)NC(=O)[C@H](CCCN)NC(=O)[C@H](CCCNC(=N)N)NC(=O)[C@H](C)NC(=O)[C@H](CO)NC(=O)[C@H](CC(C)C)NC(=O)[C@H](CCC(N)=O)NC(=O)[C@H](CC)NC(=O)[C@H](CC(C)C)NC(=O)[C@@H](NC(=O)[C@H](CCCN)NC(=O)[C@H](CCCNC(=N)N)NC(=O)[C@H](Cc1ccc(O)cc1)NC(=O)[C@H](CO)NC(=O)[C@H](CCC(N)=O)NC(=O)[C@@H](NC(=O)[C@H](Cc1ccccc1)NC(=O)[C@@H](NC(=O)[C@H](C)NC(=O)[C@H](CC(=O)O)NC(=O)[C@@H](C)NC(=O)CCc1ccc(O)cc1)[C@@H](C)CC)[C@@H](C)O)C(C)C)[C@@H](C)CC)C(=O)N[C@@H](CC(=O)O)C(=O)N[C@H](CCCNC(=N)N)C(=O)NC [Peptide P-27401, [Dat^1, D-Ala^2, Gln^8, Orn^12, Abu^15, Orn^21, Nle^27, Asp^28, D-Arg^29]hGHRH(1-29)NH—CH3] (Desaminotyrosyl-[dA]DAIFTQSYR[Orn]VL[Abu]QLSAR[Orn]LLQDI[Nle]D[dR]-NHMe) | 0.61 | 0.73 | 24.6 ± 5.3 | 217.9 ± 37.0 | 204.1 ± 23.7 | significantly higher potencies at 30 minutes than at 15 minutes | 58.8 | 0.93 | 253.4 | 2.27 | 1.05 | – | 2.94 | – | 1.59 |
| CCCC[C@H](NC(=O)[C@@H](NC(=O)[C@H](CC(=O)O)NC(=O)[C@H](CCC(N)=O)NC(=O)[C@H](CC(C)C)NC(=O)[C@H](CC(C)C)NC(=O)[C@H](CCCN)NC(=O)[C@H](CCCNC(=N)N)NC(=O)[C@H](C)NC(=O)[C@H](CO)NC(=O)[C@H](CC(C)C)NC(=O)[C@H](CCC(N)=O)NC(=O)[C@H](CC)NC(=O)[C@H](CC(C)C)NC(=O)[C@@H](NC(=O)[C@H](CCCN)NC(=O)[C@H](CCCNC(=N)N)NC(=O)[C@H](Cc1ccc(O)cc1)NC(=O)[C@H](CO)NC(=O)[C@H](CCC(N)=O)NC(=O)[C@@H](NC(=O)[C@H](Cc1ccccc1)NC(=O)[C@@H](NC(=O)[C@H](C)NC(=O)[C@H](CC(=O)O)NC(=O)[C@H](C)NC(=O)[C@H](Cc1ccc(O)cc1)NC)[C@@H](C)CC)[C@@H](C)O)C(C)C)[C@@H](C)CC)C(=O)N[C@@H](CO)C(=O)N[C@@H](CCCNC(=N)N)C(=O)NC [Peptide P-27405, [N—Me-Tyr^1, Gln^8, Orn^12, Abu^15, Orn^21, Nle^27]hGHRH(1-29)NH—CH3] (H-[NMeY]ADAIFTQSYR[Orn]VL[Abu]QLSAR[Orn]LLQDI[Nle]SR-NHMe) | 1.60 | 1.13 | 21.8 ± 5.9 | 227.9 ± 10.5 | 143.3 ± 6.1 | – | 62.3 | 0.99 | 135.2 | 1.21 | 1.09 | – | 3.04 | – | 4.03 |
